≈ marks a conversion by molar mass, not a printed value. Where two headings read alike, the source gives them in different places.
Experiments:
K. pneumoniae strains = assay: Minimum inhibitory concentration (MIC), broth microdilution; format: cell-based, Klebsiella pneumoniae
Method: The clinical isolates strains of K. pneumoniae were used in this study belong to the MICOTECA of the Antibacterial and Antifungal Activity Research Laboratory of the Federal University of Paraíba, Brazil, which are: KP-25, KP-26, KP-56, KP-83, KP-87, KP-138, KP-143, KP-166, KP-173, KP-176, KP-260, and KP-326. The American Type Culture Collection strain ATCC-700603 was used as controls. For use in the assays, bacterial suspensions were prepared in 0.9% saline solution, from fresh cultures, and adjusted to the McFarland standard 0.5 scale.
To assess the antibacterial activity of substances A1 and A2, the minimum inhibitory concentration against K. pneumoniae strains was determined. The substances were solubilized in dimethyl sulfoxide (DMSO) at 5% and Tween-80 at 2%, to obtain emulsions in the concentrations necessary for use in the tests. The MIC determination was performed using the broth microdilution technique in a 96-well plate to obtain different concentrations of A1 and A2 [35]. In parallel, controls for sterility, cell viability, and interference of the vehicles used in the preparation of substance emulsions (DMSO and Tween-80) were also performed. MIC is defined as the lowest concentration capable of causing complete inhibition of bacterial growth after 24 h at 35 ± 2 °C.

oral mucosa cells = assay: Genotoxic effects on oral mucosa cells; format: cell-based, human; details: for Binucleation / Karyolysis / Karyorrhexis / Micronucleus / Normal: 30 min ex vivo
Method: The tests were performed according to the recommendations established by the Code of Ethics of the World Medical Association, after approval by the ethics committee of the Centro Universitário de Patos (number: 3621284). Blood samples (types A, B, and O) and smears of oral mucosa were donated by young, healthy adults. First, the oral mucosa cells were collected from the donors, which was done with a cyto-brush (smear collector) in the cheek area, and the material obtained was placed in 5 mL of 0.9% NaCl. As controls, cells treated with hydrogen peroxide −0.0005% (positive control) and untreated cells (negative control) were used. The cells were washed twice with saline and centrifuged for 10 min at 400× g and kept in saline. After the third wash, the cells were exposed (ex vivo) to A2 substance at 50, 100, 500, and 1000 µg/mL concentrations for 30 min. The material was centrifuged and the supernatant was discarded before smear preparation. The cells were homogenized in a vortex and placed on the slides at room temperature for drying for 15 min. Then, they were fixed with methanol: acetic acid (3:1) for 15 min and stained with 2% Giemsa.

[1] = system: red blood cells (RBC) of the ABO system; assay: Antihemolytic activity (osmotic fragility); format: cell-based, human; details: 0.24% NaCl
Method: (§1) The tests were performed according to the recommendations established by the Code of Ethics of the World Medical Association, after approval by the ethics committee of the Centro Universitário de Patos (number: 3621284). Blood samples (types A, B, and O) and smears of oral mucosa were donated by young, healthy adults.
The analysis of the osmotic fragility of the red cells was performed using previously prepared red blood cell suspensions at 0.5%. Different concentrations (50, 100, 500, and 1000 µg/mL) of the A2 substance were used for the treatment of 0.5% RBC suspensions for 1h at 22 ± 2 °C. The samples were centrifuged at 2500 rpm for 5 min and the supernatant was discarded. The erythrocytes were resuspended in a hypotonic solution of 0.24% sodium chloride for one hour at 22 ± 2 °C. After this period, the samples were centrifuged at 700× g for 5 min and the hemolysis of the supernatant was quantified by spectrophotometry at 540 nm. As controls, a suspension of untreated red blood cells was used as a negative control (0% hemolysis) and in a hypotonic solution as a positive control (100% hemolysis).

Hemolytic activity = format: cell-based; details: human, 0.5% red blood cell suspension
Method: as §1
The red blood cell (RBC) samples from blood donors were diluted in 0.9% NaCl at a 1:30 ratio and centrifuged at 2500 rpm for five minutes to obtain the 0.5% suspension free of white blood cells and platelets. Then, the A2 substance was added to the red blood cell suspensions, at 50, 100, 500, and 1000 µg/mL concentrations. As controls, a suspension of red cells without treatment (0% hemolysis) were used as a negative control and a suspension of red cells treated with 1% Triton X-100 (100% hemolysis) as a positive control. The assay was incubated for one hour at 22 ± 2 °C. After that time, the samples were centrifuged at 700× g for 5 min and hemolysis was quantified by spectrophotometry at a wavelength of 540 nm.

## O=C(CCl)Nc1ccc(F)c([N+](=O)[O-])c1 [A2, 2-chloro-N-(4-fluoro-3-nitrophenyl)acetamide]
other
  melting point: 91 to 93 °C
K. pneumoniae strains; Klebsiella pneumoniae, ATCC700603, strain ATCC-700603, 24 h at 35 ± 2 °C, read-out: MIC
  MIC: 512 µg/mL (≈ 2200 µM)
K. pneumoniae strains; Klebsiella pneumoniae, 100% of the K. pneumoniae strains used in this study, read-out: MIC
  MIC: 512 µg/mL (≈ 2200 µM)
K. pneumoniae strains; Klebsiella pneumoniae, strain KP-138, 24 h at 35 ± 2 °C, read-out: MIC
  MIC: 512 µg/mL (≈ 2200 µM)
K. pneumoniae strains; strain KP-25, 24 h at 35 ± 2 °C
  MIC: 512 µg/mL (≈ 2200 µM)
K. pneumoniae strains; strain KP-26, 24 h at 35 ± 2 °C
  MIC: 512 µg/mL (≈ 2200 µM)
K. pneumoniae strains; strain KP-56, 24 h at 35 ± 2 °C
  MIC: 512 µg/mL (≈ 2200 µM)
K. pneumoniae strains; strain KP-83, 24 h at 35 ± 2 °C
  MIC: 512 µg/mL (≈ 2200 µM)
K. pneumoniae strains; strain KP-87, 24 h at 35 ± 2 °C
  MIC: 512 µg/mL (≈ 2200 µM)
K. pneumoniae strains; strain KP-143, 24 h at 35 ± 2 °C
  MIC: 512 µg/mL (≈ 2200 µM)
K. pneumoniae strains; strain KP-166, 24 h at 35 ± 2 °C
  MIC: 512 µg/mL (≈ 2200 µM)
K. pneumoniae strains; strain KP-173, 24 h at 35 ± 2 °C
  MIC: 512 µg/mL (≈ 2200 µM)
K. pneumoniae strains; strain KP-176, 24 h at 35 ± 2 °C
  MIC: 512 µg/mL (≈ 2200 µM)
K. pneumoniae strains; strain KP-260, 24 h at 35 ± 2 °C
  MIC: 512 µg/mL (≈ 2200 µM)
K. pneumoniae strains; strain KP-326, 24 h at 35 ± 2 °C
  MIC: 512 µg/mL (≈ 2200 µM)
Oral mucosa cells; 50 µg/mL
  Binucleation: 0.00%
  Karyolysis: 1.00%
  Karyorrhexis: 1.00%
  Micronucleus: 0.50%
  Normal: 97.50%
Oral mucosa cells; 100 µg/mL
  Binucleation: 0.00%
  Karyolysis: 3.00%
  Karyorrhexis: 4.00%
  Micronucleus: 0.50%
  Normal: 92.50%
Oral mucosa cells; 500 µg/mL
  Binucleation: 0.50%
  Karyolysis: 4.00%
  Karyorrhexis: 5.00%
  Micronucleus: 0.70%
  Normal: 86.80%
Oral mucosa cells; 1000 µg/mL
  Binucleation: 0.50%
  Karyolysis: 5.00%
  Karyorrhexis: 7.00%
  Micronucleus: 2.00%
  Normal: 83.50%
Oral mucosa cells; all tested concentrations (50–1000 µg/mL)
  normal cells: greater than 80%
[1]; 1000 µg/mL, type B red blood cells
  percentage of hemolysis in hypotonic solution (anti-hemolytic evaluation): > 80%
[1]; all concentrations (50–1000 µg/mL), three ABO blood types, except 1000 µg/mL in type B
  percentage of hemolysis in hypotonic solution (anti-hemolytic evaluation), class: moderate (moderate (40% and 80%))
Hemolytic activity; blood types A, B and O, 50–500 µg/mL, all tested blood types, 1 h at 22 ± 2 °C
  hemolysis at 1 h: 4 to 20%
Hemolytic activity; blood type O, read-out: hemolysis (average erythrocyte lysis)
  hemolysis at 1 h, 1000 µg/mL: 8%
Hemolytic activity; blood types A and B, read-out: hemolysis
  hemolysis at 1 h, 1000 µg/mL: 37 to 47%
